`CSc1cccc(Oc2ncccc2C(=O)NCc2ccc(C(C)(C)O)cc2)c1` gave a melting point of 107 to 109 °C.
With `COc1ccc(OC)c2[nH]c(-c3ccccc3)nc12` the melting point was 226 to 227 °C.
For `Clc1cc(N2CCCCCC2)nc(-c2ccccc2)n1`, the melting point was 64 to 66 °C.
Work on `OCc1ccccc1CCc1ccc(Br)cc1` yielded a melting point of 72 to 75.5 °C.
`COc1ccc(C2(C=O)C=CC=CC2)cc1OCCCN1CCC(c2noc3cc(F)ccc23)CC1` (stereo not drawn) showed a melting point of 140 to 141 °C.
`Oc1ccc(O)c2[nH]c(-c3ccc(Cl)cc3)nc12` showed a melting point of over 300 °C.
With `CS(=O)(=O)c1ccc(-c2sc(NCc3ccccc3)nc2-c2ccc(F)cc2)cc1` the melting point was 112 °C.
In the case of `CN1CCC(N(CCN2CCCC2)C(=O)c2ccc(Nc3nccc(Nc4ccc(C(F)(F)F)cc4)n3)cc2)CC1`, the melting point is reported as 115 to 120 °C.
`Cc1cccc(C)c1NC(=O)N=C1CCCN1C` showed a melting point of 119 to 120 °C.
Work on `CCOC(=O)c1ncn2c1[C@@H]1CCN1C(=O)c1c-2cccc1C(F)(F)F` yielded a melting point of 183 to 184 °C.
Molecule `COC(=O)c1ccc(Oc2ccccc2C=O)c([N+](=O)[O-])c1` has a melting point of 109 to 110 °C.
In the case of `CC(C)(C)C(O)C(=Cn1ccnc1)Oc1ccc(F)cc1` (stereo not drawn), the melting point is reported as 112 to 113 °C.
`CCOC(=O)c1cnc2cn[nH]c2c1Sc1ccccc1` showed a melting point of 130 to 131 °C.
`Cc1ccccc1-c1c(Cn2cnc3c(N)ncnc32)oc2ccc(Br)cc2c1=O` gave a melting point of 252 to 255 °C.
`O=C(O)C1=CC=CC(C(=O)c2ccc(O)c(O)c2)(C(=O)c2ccc(O)c(O)c2)C1` gave a melting point of 254 to 256 °C.
In the case of `CC(O)=C(C#N)C(=O)Oc1cccc(Cl)c1Cl`, the melting point is reported as 142 to 146 °C.
`CC(C)n1nc(-c2c(-c3ccccc3)nn3ccc(NC(=O)c4ccccc4)cc23)ccc1=O` gave a melting point of 266 to 267 °C.
In the case of `CCCCCCC(=O)Nc1cccc2c1C(=O)c1ccccc1C2=O`, the melting point is reported as 133 °C.
Molecule `CCC(=O)Nc1c(C(=O)c2cc(Cl)ccn2)[nH]c2cc(Cl)ccc12` has a melting point of 188 to 190 °C.
For `CCOC(=O)c1cc2cccc(NS(C)(=O)=O)c2[nH]1`, the melting point was 157 to 158 °C.
`CC(C)Oc1ccc(-n2c(-c3ccc(C(=O)O)cc3)c(C(=O)O)c3cc(Oc4cccc(Cl)c4)ccc32)cc1` showed a melting point of 211 to 217 °C.
Molecule `COC1=C(OC)C(=O)C2=C(CC(CCCCCCCCO)C2)C1=O` has a melting point of 56 to 58 °C.
For `CCON1CC1C(N)=O` (stereo not drawn), the melting point was 50 to 54 °C.
Work on `COC(=O)c1oc2cc(S)ccc2c1C` yielded a melting point of 118 to 120 °C.
`OC1CSC(Sc2cc(C(F)(F)F)cc(C(F)(F)F)c2)C(O)C1O` (stereo not drawn) gave a melting point of 157 to 158 °C.
`O=C(O)CCCCN1CCN2c3ccccc3Cc3ccccc3C2C1` (stereo not drawn) showed a melting point of 218 to 219 °C.
For `CS(=O)(=O)c1cccc(NC(=O)c2cnn3c(C(F)(F)F)cc(-c4ccc(Cl)c(Cl)c4)nc23)c1`, the melting point was 263 °C.
Molecule `COc1nc(Cl)c(C(C)C)c(OC)n1` has a melting point of 23 to 24 °C.
With `c1ccc(-c2cc(N3CCNCC3)nc(-c3ccccn3)n2)nc1` the melting point was 159 to 161 °C.
Work on `CCC(=O)c1cn(C)cc(-c2cccc(C(F)(F)F)c2)c1=O` yielded a melting point of 136 to 138 °C.
Molecule `CCCCc1nc2c(N)nc3ccccc3c2n1CCCCC(=O)N1CCOCC1` has a melting point of 141 to 143 °C.
With `CN1CCC(OC(c2cccc(SCCNC(N)=O)c2)c2nc3ccccc3[nH]2)CC1` (stereo not drawn) the melting point was 136 °C.
`COc1ccc(C(=O)N2CCc3cc(S(=O)(=O)N4CC(c5ccccc5)NC4=O)ccc32)cc1` (stereo not drawn) gave a melting point of 220 to 222 °C.
Molecule `CCC(=O)N1c2ccccc2NC(=O)c2cscc21` has a melting point of 222 to 224 °C.
Work on `Oc1ccc2c(-c3nc4cc(O)ccc4o3)cccc2c1` yielded a melting point of 232 to 234 °C.
For `CN(C(=O)NC(=O)c1ccccc1)C(=O)Nc1nc(C(Cl)(Cl)Cl)ns1`, the melting point was 70 °C.
With `O=CNCC1Cc2ccccc2Cc2ccccc21` (stereo not drawn) the melting point was 109 to 111 °C.
`C=C(C)C(=O)CCCCCCOc1ccc(C(=O)O)cc1` showed a melting point of 81 to 94 °C.
`O=C(c1ccccc1)c1cccc(NC(=O)c2ccn3c2CSC3c2cccnc2)c1` (single isomer, unassigned; (+)) gave a melting point of 109 °C.
Work on `Cc1ccc(S(=O)(=O)N(C)c2ccc(Cl)cc2Cl)cc1` yielded a melting point of 86 to 87 °C.
`Clc1ccc(-c2cn3ccccc3n2)c(Cl)c1` gave a melting point of 174 to 177 °C.
In the case of `Cc1cnn(-c2ccc(C(=O)N3Cc4cccn4Cc4ccccc43)cc2)c1`, the melting point is reported as 179 to 181 °C.
Molecule `CN(C)c1ccc(C(=O)c2ccc(OCCO)cc2)cc1` has a melting point of 142 to 143 °C.
Work on `CCNC(=O)c1ccc(F)cc1` yielded a melting point of 73.2 to 76.3 °C.
Molecule `COc1cccc(-c2c(Cl)cccc2Cl)c1OC` has a melting point of 49 to 50 °C.
Work on `CCCOc1ccc(S(=O)(=O)N2CCN(C)CC2)cc1-c1cc2c(=O)n(C)c(=O)n(CCC)c2[nH]1` yielded a melting point of 240 °C.
With `Nc1nc2c(Oc3ccccc3)cccc2s1` the melting point was 135 to 137 °C.
Molecule `CC(C)(C)c1cc(CP(=O)(Oc2ccccc2)Oc2ccccc2)cc(C(C)(C)C)c1O` has a melting point of 130 °C.
Molecule `Cc1cccc(NC(=O)N[C@H]2C[C@@](N)(C(=O)O)[C@@H]3[C@@H](C(=O)O)[C@@H]32)c1` (relative stereo) has a melting point of over 250 °C.
For `CC(=O)Cc1ccc2c(c1)C1(C)CCN(C)C1N2C` (stereo not drawn), the melting point was 115 to 125 °C.
In the case of `Cc1noc(NS(=O)(=O)c2ncccc2C(=O)Nc2ccccc2)c1C`, the melting point is reported as 199 to 200 °C.
With `Nc1c(-c2ccc(-c3ccccc3F)cc2)nc2ccc(C(F)(F)F)cc2c1C(=O)O` the melting point was 255 to 260 °C.
`COc1cc2c(cc1OC)CN(CCc1ccc(NC(=O)c3cccc4c(=O)c5cccc(OC)c5[nH]c34)cc1)CC2` showed a melting point of 215 to 225 °C.
For `CNC(=O)C1(C)Oc2c(C)c(C)c(O)c(C)c2CC1OC` (stereo not drawn), the melting point was 139 to 140 °C.
`CCN(CCNC(=O)c1ccnc(F)c1)CCNC(=O)c1cnc2cc(I)ccc2n1` showed a melting point of 146 to 148 °C.
Molecule `O=C(O)c1cc([N+](=O)[O-])ccc1OC(F)(F)F` has a melting point of 134 to 135 °C.
For `CCC(CCCc1cc(OC)c(OC)c(OC)c1)(c1cccs1)N(C)C` (stereo not drawn), the melting point was 62 to 63 °C.
For `Cc1c(Br)cc(S(C)(=O)=O)c(C)c1Cl`, the melting point was 124 to 126 °C.
With `Clc1nc2ncsc2nc1Cl` the melting point was 124 to 125 °C.
With `CS(=O)(=O)c1ccc(-c2cc(N)sc2-c2ccc(F)cc2)cc1` the melting point was 207 to 209 °C.
For `CC(C)C(=O)NC(N)=S`, the melting point was 114 to 116 °C.
In the case of `CC(C)(C)c1nn(-c2ccc(N)cc2Cl)c(=O)o1`, the melting point is reported as 158 to 159 °C.
With `C=Cc1ccc(OC(C)C)c(OCCN2C(=O)c3ccccc3C2=O)c1` the melting point was 78 °C.
Molecule `COC(=O)CCCc1cc2nc(Cl)ccc2n1S(=O)(=O)c1cccc(-c2cncs2)c1` has a melting point of 147 to 148 °C.
`Cc1cc2c(F)cc(F)c(-n3c(=O)cc(C(F)(F)F)n(C)c3=O)c2o1` gave a melting point of 176 to 178 °C.
With `O=C(C1CCN(c2ccncc2)CC1)N1CCCN(S(=O)(=O)c2ccc3ccccc3c2)CC1` the melting point was 178 to 180 °C.
Work on `CC(C)n1nc(CO)cc1OCc1ccc2ccccc2n1` yielded a melting point of 118 to 119 °C.
Work on `Cc1c(NC(=O)c2ccc(NC(=O)c3ccccc3)cc2)ccc2cc(CN3CCCC3)cnc12` yielded a melting point of 242 °C.
`COc1ccc(OC)n2nc(N)nc12` showed a melting point of 223 to 234 °C.
`O=[N+]([O-])C=C1SCCN1Cc1ccccc1` showed a melting point of 136 to 138 °C.
With `CC(C)c1sc(-c2ccccc2)c(-c2ccc(F)cc2)c1CO` the melting point was 140 to 143 °C.
`CC(C)(C)C(=O)OCOP(=O)(CCCCc1ccccc1)CC(=O)O` (stereo not drawn) gave a melting point of 48 to 50 °C.
Work on `O=C(O)C1CCc2c(c3ccccc3n2C(=O)c2cccc(I)c2)C1` (stereo not drawn) yielded a melting point of 210 to 212 °C.
`CC1(C)OC(c2ccc(S(C)(=O)=O)c(Cl)c2)=C(c2ccccc2)C1=O` showed a melting point of 174 to 175 °C.
Work on `CN(C(=O)CN1C(=O)C(NC(=O)Nc2cccc(C#N)c2)N=C(CN2CCOCC2)c2ccccc21)c1ccccc1` (stereo not drawn) yielded a melting point of 165 to 167 °C.
Work on `CCCCCCCCOC(=O)/C(C#N)=C/C=C/N(C)C` yielded a melting point of 80 to 81 °C.
In the case of `Nc1nc(SCc2ccc3ccccc3c2)nc(O)c1CCO`, the melting point is reported as 192 to 193 °C.
For `Cc1cccc(-c2ccc(Cl)nn2)c1`, the melting point was 112 to 113 °C.
For `CCOC(=O)c1cc2c([nH]c3ccccc32)c(CNc2ccccc2)n1`, the melting point was 256 to 258 °C.
Molecule `CC1(C)CCC(C)(C)c2cc(NC(=O)c3ccc(C=O)cc3)ccc21` has a melting point of 186 °C.
For `NC(=O)N1CCN(c2nn(-c3ccccc3)c3ccccc23)CC1`, the melting point was 151 to 153 °C.
For `COC(=O)C=C1NC(C)(CO)COC1=O` (stereo not drawn), the melting point was 62 to 63 °C.
With `Cc1nnc2ccc(-c3cccc(NC(=O)C4CC4)c3)nn12` the melting point was 255 to 258 °C.
Work on `Cc1ccc(C)n1N1C(=O)c2ccccc2C1=O` yielded a melting point of 182 to 184 °C.
`CN1C(=O)C(c2ccncc2)(c2ccc(OC(F)F)cc2)N=C1N` (stereo not drawn) showed a melting point of 193 to 195 °C.
With `FCc1nc(C#CCCc2cn3cc(F)ccc3n2)cs1` the melting point was 82 to 84 °C.
For `COc1cc(OC)nc(Sc2sccc2[N+](=O)[O-])n1`, the melting point was 199 to 201 °C.
In the case of `COc1cccc(NC(=O)CC23CC4CC(CC(C4)C2)C3)c1C`, the melting point is reported as 173 to 175 °C.
`FC(F)(F)c1cc(Br)c2nc(C(F)(F)F)[nH]c2c1` gave a melting point of 127 to 130 °C.
`COc1cccc2c1CCc1c-2occ(C=O)c1=O` gave a melting point of 201 to 202 °C.
For `Oc1ccc(Br)cc1C(O)c1ccc2ccccc2c1` (stereo not drawn), the melting point was 115 to 117 °C.
`O=C(O)CCC(=O)NC1CCCCC1` showed a melting point of 168 to 170 °C.
`CCN1Cc2cccc3scc(c23)S1(=O)=O` gave a melting point of 156 °C.
Work on `Cc1nc2cccc(C)n2c(=O)c1CCN1CCC(c2c[nH]c3ccccc23)CC1` yielded a melting point of 225 °C.
`CCC=C1SC(=S)N(CC(=O)O)C1=O` showed a melting point of 138 to 140 °C.
For `O=C(O)CCOCCc1cccc(-c2nc(=O)c3ccccc3s2)n1`, the melting point was 237 °C.
Work on `c1ccc2c3cncc-3cncc2c1` yielded a melting point of 220 to 221 °C.
`O=C(O)c1ccc2c(c1)Sc1ccccc1S2` gave a melting point of 220 °C.
`O=C(CCCN1CCC(NC(=O)c2ccccc2)CC1)c1ccc(F)cc1` showed a melting point of 161 to 162 °C.
`CCOc1ccc(-n2nc(C(F)(F)F)nc2-c2ccc(S(C)(=O)=O)cc2)cc1` gave a melting point of 112 °C.
`O=S(=O)(c1ccccc1)N1CCC(C(=NCCc2ccccc2)c2ccc(F)cc2)CC1` gave a melting point of 123 to 126 °C.
Work on `CCOC(=O)c1cc(C(=O)O)nc2cc(Cl)cc(Cl)c12` yielded a melting point of 152 to 154 °C.
`Cc1cc2ccc(Cl)c(C(=O)O)c2nc1C(F)(F)F` gave a melting point of 186 to 188 °C.

— a melting point compilation (Tetko et al.; mined from patent text by program, amines drawn as free bases though some values may be those of a salt)
